# pIC50: −log10 of the molar value. Where a name gives a salt, the structure may show the parent alone.
# Columns and labels:
# CYP2C9 = CYP2C9 (Homo sapiens, UniProt P11712); assay: Inhibition of CYP2C9 activity in human liver microsomes
# Procedure: CYP enzyme activity was determined by measuring the formation of each CYP probe metabolite by LC-MS/MS.
# The total organic solvent content in the final incubation was less than 1% (DMSO ≤0.1%, other organic solvent ≤1%). […] The reaction was initiated by the addition of NADPH, followed by incubation at 37° C. for 10-30 minutes depending on the individual CYP isoform. The reaction was terminated by the addition of two volumes of ice-cold acetonitrile (ACN) containing an internal standard (IS, stable isotope-labeled CYP probe metabolite). Negative (vehicle) controls were conducted without TA. Positive controls were performed in parallel using known CYP inhibitors. […] The formation of individual CYP probe metabolites was determined by LC-MS/MS.
# The enzyme activity was expressed as the peak area ratio of probe metabolite to IS, measured by LC-MS/MS.
# human hepatocytes = details: 72 h, 100 µM
# Procedure: Plateable and inducible cryopreserved human hepatocytes were thawed and isolated in human hepatocyte thawing medium. […] After attachment (4 hours), the medium was changed to fresh hepatocyte culture medium for overnight cell recovery. […] A positive control (100 μM chlorpromazine) was treated in parallel. […] The absorbance of formazan, which is proportional to the number of viable cells, was measured spectrophotometrically using the CellTiter 96® AQueous One Solution Cell Proliferation Assay (MTS).
# OATP1B1 = target: T1, OATP1B1 (Homo sapiens, UniProt Q9Y6L6); assay: OATP1B1 inhibitor (IC50) assessment, atorvastatin uptake in transfected HEK cells
# T1 sequence (Q9Y6L6 1-691): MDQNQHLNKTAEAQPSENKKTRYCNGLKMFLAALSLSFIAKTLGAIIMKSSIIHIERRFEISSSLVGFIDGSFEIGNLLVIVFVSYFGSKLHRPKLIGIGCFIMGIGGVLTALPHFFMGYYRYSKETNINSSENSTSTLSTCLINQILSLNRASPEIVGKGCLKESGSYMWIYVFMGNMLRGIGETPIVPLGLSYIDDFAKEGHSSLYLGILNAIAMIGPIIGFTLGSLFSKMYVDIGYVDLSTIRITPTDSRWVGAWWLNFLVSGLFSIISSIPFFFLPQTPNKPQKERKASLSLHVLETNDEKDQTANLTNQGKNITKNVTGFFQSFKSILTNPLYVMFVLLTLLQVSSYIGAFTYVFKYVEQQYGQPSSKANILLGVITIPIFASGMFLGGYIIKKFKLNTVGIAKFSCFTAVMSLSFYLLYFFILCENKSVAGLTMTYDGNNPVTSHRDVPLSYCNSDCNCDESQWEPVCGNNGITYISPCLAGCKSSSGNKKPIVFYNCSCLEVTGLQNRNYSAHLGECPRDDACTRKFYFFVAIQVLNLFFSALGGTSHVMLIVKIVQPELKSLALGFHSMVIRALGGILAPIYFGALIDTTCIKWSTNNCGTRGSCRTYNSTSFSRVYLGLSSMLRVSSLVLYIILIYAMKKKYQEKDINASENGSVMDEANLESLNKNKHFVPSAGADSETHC
# OATP1B3 = target: T2, OATP1B3 (Homo sapiens, UniProt Q9NPD5); assay: OATP1B3 inhibitor (IC50) assessment, atorvastatin uptake in transfected HEK cells
# T2 sequence (Q9NPD5 1-702): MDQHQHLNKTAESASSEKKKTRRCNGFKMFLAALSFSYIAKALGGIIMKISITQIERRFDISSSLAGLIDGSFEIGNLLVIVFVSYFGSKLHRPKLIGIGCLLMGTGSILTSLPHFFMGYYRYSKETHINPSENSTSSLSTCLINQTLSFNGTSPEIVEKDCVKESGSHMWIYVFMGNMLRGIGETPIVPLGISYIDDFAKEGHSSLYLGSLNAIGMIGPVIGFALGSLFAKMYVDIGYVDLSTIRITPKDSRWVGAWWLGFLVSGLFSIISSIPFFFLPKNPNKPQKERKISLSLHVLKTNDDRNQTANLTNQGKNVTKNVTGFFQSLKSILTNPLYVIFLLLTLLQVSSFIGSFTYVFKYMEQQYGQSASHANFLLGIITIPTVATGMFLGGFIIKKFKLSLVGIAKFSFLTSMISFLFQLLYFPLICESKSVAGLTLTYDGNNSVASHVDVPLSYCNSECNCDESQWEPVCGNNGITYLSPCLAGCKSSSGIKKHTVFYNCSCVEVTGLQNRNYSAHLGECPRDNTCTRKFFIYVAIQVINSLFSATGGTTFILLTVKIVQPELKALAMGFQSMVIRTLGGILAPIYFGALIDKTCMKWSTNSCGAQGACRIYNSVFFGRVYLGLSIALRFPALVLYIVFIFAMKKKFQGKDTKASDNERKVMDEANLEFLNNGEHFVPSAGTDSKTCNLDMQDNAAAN
# [1] = rat, in vivo
# hrCYP3A4 = hrCYP3A4 (Homo sapiens, UniProt P08684); assay: Formation of CYP probe metabolites in hrCYPs; assay type: in vitro ADME; details: Formation rate(hrCYP)/Formation rate(Negative Control)
# [2] = CYP reaction phenotyping: CYP control (negative control without CYP enzymes); details: pH 7.4
# Procedure: The reaction was initiated by the addition of NADPH, followed by incubation at 37° C.
# CYP2B6 [3] = target: T3, CYP2B6 (Homo sapiens, UniProt P20813); assay: Inhibition of CYP2B6 activity in human liver microsomes; assay type: in vitro ADME; parameters: co-incubated with pooled HLM (0.25 mg protein/mL); from tissue; host or cells: pooled human liver microsomes
# T3 sequence (P20813 1-491): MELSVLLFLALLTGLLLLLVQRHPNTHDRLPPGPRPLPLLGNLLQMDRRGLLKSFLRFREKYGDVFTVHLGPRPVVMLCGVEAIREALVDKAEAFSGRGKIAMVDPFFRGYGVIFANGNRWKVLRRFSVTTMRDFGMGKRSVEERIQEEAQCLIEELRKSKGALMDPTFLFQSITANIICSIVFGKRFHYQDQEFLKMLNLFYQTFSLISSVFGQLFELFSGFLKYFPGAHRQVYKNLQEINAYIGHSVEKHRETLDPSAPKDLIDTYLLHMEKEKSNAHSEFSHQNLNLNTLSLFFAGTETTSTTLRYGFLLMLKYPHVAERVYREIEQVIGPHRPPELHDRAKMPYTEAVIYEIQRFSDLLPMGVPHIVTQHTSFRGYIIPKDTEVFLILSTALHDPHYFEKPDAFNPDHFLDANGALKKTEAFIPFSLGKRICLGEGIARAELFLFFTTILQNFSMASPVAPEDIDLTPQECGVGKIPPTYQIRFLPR
# CYP2B6 [4] = target: T3, CYP2B6; assay: Time-dependent inhibition (TDI) of CYP in HLM, 30 min pre-incubation ±NADPH; details: microsomes, pH 7.4, % of Control Enzyme Activity
# Procedure: CYP TDI was evaluated by a 30-minute pre-incubation of the TA with HLM in the presence and absence of NADPH followed by the CYP enzyme activity assay. […] The total organic solvent content in the final incubation was less than 1% (DMSO ≤0.1%, other organic solvent ≤1%). The CYP reactions were initiated by adding an individual CYP probe substrate with (when NADPH was not added in the pre-incubation step) or without (when NADPH was added in the pre-incubation step) the addition of NADPH (1 mM). The reaction mixture was incubated at 37° C. for 10-30 minutes depending on the individual CYP isoform (Table 24). The reaction was terminated with ice-cold acetonitrile (ACN) containing an internal standard (IS, stable isotope-labeled CYP probe metabolite). Negative (vehicle) controls were conducted using the incubation mixture without the TA. Positive controls were performed in parallel using known CYP time-dependent inhibitors. […] The formation of individual CYP probe metabolites was determined by LC-MS/MS.
# The enzyme activity was expressed as the peak area ratio of CYP probe metabolite to IS, measured by LC-MS/MS.
# CYP2C8 = target: T4, CYP2C8 (Homo sapiens, UniProt P10632); assay: Inhibition of CYP2C8 activity in human liver microsomes; assay type: in vitro ADME; parameters: co-incubated with pooled HLM (0.25 mg protein/mL); from tissue; host or cells: pooled human liver microsomes
# T4 sequence (P10632 1-490): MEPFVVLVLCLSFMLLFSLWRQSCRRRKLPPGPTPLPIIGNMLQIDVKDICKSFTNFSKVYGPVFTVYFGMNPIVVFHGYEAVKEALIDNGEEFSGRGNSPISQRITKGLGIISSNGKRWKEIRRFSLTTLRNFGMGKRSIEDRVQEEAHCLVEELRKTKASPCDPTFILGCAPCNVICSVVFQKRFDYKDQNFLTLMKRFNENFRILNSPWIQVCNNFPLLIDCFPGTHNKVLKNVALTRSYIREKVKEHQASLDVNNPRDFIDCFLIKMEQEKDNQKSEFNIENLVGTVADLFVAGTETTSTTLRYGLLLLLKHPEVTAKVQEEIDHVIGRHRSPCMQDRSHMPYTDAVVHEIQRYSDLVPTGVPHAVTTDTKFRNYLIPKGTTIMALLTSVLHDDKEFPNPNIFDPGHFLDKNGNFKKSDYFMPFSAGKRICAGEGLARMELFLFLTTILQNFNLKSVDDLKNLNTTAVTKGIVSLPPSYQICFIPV
# Procedure: […]. […] Negative (vehicle) controls were conducted without TA.
# [5] = parameters: species or system male Sprague Dawley rats; details: male, Sprague Dawley, rat, in vivo, po
# Procedure: Total urine recovery data for Tenofovir, TDF, and PB was calculated for the 24 hour collection period on Days 1 and 5. […] The reported urine recovery data included amount recovered (ng) and percent recovered (%) for […]. Individual and mean Tenofovir, TDF, and PB urine recovery data were presented with SD, reported to three significant figures, and CV %, reported to one decimal place.
# Sequence of CYP2C9 (P11712 whole entry): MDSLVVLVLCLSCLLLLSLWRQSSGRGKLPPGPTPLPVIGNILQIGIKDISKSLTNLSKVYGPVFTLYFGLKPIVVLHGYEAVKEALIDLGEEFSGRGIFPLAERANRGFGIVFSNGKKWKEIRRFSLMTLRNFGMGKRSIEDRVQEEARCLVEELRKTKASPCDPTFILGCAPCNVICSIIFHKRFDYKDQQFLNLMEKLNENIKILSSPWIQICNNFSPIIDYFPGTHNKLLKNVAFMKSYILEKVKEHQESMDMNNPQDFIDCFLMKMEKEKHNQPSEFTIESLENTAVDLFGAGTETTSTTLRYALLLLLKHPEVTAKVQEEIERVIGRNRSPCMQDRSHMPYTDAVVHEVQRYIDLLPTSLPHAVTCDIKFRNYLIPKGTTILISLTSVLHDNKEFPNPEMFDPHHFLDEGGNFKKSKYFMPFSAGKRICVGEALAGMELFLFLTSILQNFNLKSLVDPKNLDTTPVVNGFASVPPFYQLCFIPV
# Sequence of hrCYP3A4 (P08684 whole entry): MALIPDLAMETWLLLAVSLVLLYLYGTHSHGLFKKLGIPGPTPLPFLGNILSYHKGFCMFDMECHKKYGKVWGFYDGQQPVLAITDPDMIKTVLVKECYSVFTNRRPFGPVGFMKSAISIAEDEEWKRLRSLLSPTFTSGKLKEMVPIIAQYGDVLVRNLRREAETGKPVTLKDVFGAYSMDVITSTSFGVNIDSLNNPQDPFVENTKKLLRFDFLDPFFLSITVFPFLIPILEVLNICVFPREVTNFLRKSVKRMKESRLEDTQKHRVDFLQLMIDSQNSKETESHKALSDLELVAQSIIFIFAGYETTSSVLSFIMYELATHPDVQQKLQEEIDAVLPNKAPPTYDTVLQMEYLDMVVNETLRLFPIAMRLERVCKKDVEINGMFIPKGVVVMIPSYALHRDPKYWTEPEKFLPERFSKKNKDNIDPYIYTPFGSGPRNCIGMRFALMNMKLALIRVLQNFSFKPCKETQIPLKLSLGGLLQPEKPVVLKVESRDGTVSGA
structure (smiles),measurement,setting,value
Nc1ccc(S(=O)(=O)Nc2ccnn2-c2ccccc2)cc1 [Sulfaphenazole],% of Control Enzyme Activity (n = 3) Average,CYP2C9; Sulfaphenazole 3.33 μM,23.8%
same,% of Control Enzyme Activity (n = 3) Average,CYP2C9; Sulfaphenazole 10.0 μM,14.9%
"CN(C)CCCN1c2ccccc2Sc2ccc(Cl)cc21 [Chlorpromazine, chlorpromazine]",% MTS Absorbance Relative to Vehicle Control,human hepatocytes,24.3%
same,Formazan Absorbance (n = 3) Mean,human hepatocytes,0.160
"CO[C@H]1/C=C/O[C@@]2(C)Oc3c(C)c([O-])c4c(O)c(cc(O)c4c3C2=O)NC(=O)/C(C)=C\C=C\[C@H](C)[C@H](O)[C@@H](C)[C@@H](O)[C@@H](C)[C@H](OC(C)=O)[C@@H]1C.[Na+] [RSV, rifamycin SV]",Net Influx Rate of Atorvastatin (OATP1B1),OATP1B1; […] Atorvastatin + 10 μM RSV,0.184 pmol/mg protein/minute
same,Percentage Inhibition of OATP1B1,OATP1B1; […] Atorvastatin + 10 μM RSV,96.7%
same,inhibition of atorvastatin uptake in OATP1B1-transfected cells,OATP1B1; known inhibitor,96.7%
same,Net Influx Rate of Atorvastatin (OATP1B3),OATP1B3; […] Atorvastatin + 10 μM RSV,0.0551 pmol/mgprotein/minute
same,Percentage Inhibition of OATP1B3,OATP1B3; […] Atorvastatin + 10 μM RSV,98.1%
same,inhibition of atorvastatin uptake in OATP1B3-transfected cells,OATP1B3; known inhibitor,98.1%
C[C@H](Cn1cnc2c(N)ncnc21)OCP(=O)(O)O [Tenofovir],individual Tmax,[1],15 min
"Cc1ncc2n1-c1ccc(Cl)cc1C(c1ccccc1F)=NC2 [Midazolam, reference compound]",Formation Rate Ratio,hrCYP3A4,>>2
same,Formation Rate,[2],0 pmol metabolite/min/mg Supersome protein
same,Measured Metabolite,[2],0 µM
S=P(N1CC1)(N1CC1)N1CC1 [Thio-TEPA],% of Control Enzyme Activity (n = 3) Average,CYP2B6 [3]; Thio-TEPA 3.33 μM,66.9%
same,% of Control Enzyme Activity (n = 3) Average,CYP2B6 [3]; Thio-TEPA 10.0 μM,44.1%
same,% of Control Enzyme Activity (n = 3) Average,CYP2B6 [3]; Thio-TEPA 30.0 μM,26.7%
same,"activity at 30 min, 3.33 µM","CYP2B6 [4]; +NADPH 30 min, 3.33 μM",35.5%
same,"activity at 30 min, 10 µM",CYP2B6 [4]; +NADPH 30 min,18.3%
same,"activity at 30 min, 30 µM",CYP2B6 [4]; +NADPH 30 min,11.6%
same,"activity at 30 min, 10 µM",CYP2B6 [4]; −NADPH 30 min,76.7%
same,"activity at 30 min, 30 µM",CYP2B6 [4]; −NADPH 30 min,54.8%
"C[C@]12CC[C@H]3[C@@H](CCC4=CC(=O)CC[C@@]43C)[C@@H]1CC[C@@H]2O [Testosterone, reference compound]",Formation Rate Ratio,hrCYP3A4,>>2
same,Formation Rate,[2],0 pmol metabolite/min/mg Supersome protein
same,Measured Metabolite,[2],0 µM
CC(C)(O)c1ccccc1CC[C@@H](SCC1(CC(=O)O)CC1)c1cccc(/C=C/c2ccc3ccc(Cl)cc3n2)c1 [Montelukast],activity at 3.33 μM,"CYP2C8; human, microsomes, pH 7.4",14.6%
same,activity at 10 μM,"CYP2C8; human, microsomes, pH 7.4",5.31%
same,pIC50,"CYP2C8; positive inhibitor, HLM",6.29
"CC(C)OC(=O)OCOP(=O)(CO[C@H](C)Cn1cnc2c(N)ncnc21)OCOC(=O)OC(C)C [TDF, Tenofovir Disoproxil Fumarate]",Urine concentrations,[5],"Urine concentrations for PB analysis in all animals on Day 1, for TUDCA analysis in all animals on Days 1 and 5, and for TDF analysis in two animals on Day 1 and one animal on Day 5 were BLQ (<20 ng/mL) so no recovery data was calculated."

# Reference: patent US20230277630A1, “METHODS AND COMPOSITIONS FOR TREATING AMYOTROPHIC LATERAL SCLEROSIS” (Amylyx Pharmaceuticals, Inc., priority 2022, published 2023)
